Experimental data from patent publication US7658916B2, “Methods of enhancing lysosomal storage disease therapy by modulation of cell surface receptor density” (Genzyme Corporation, priority 2002, dated 2010).
Like-named read-outs stand apart in the source and are kept apart here.

Tests used:
[1] = test system: L6 myotubes; experiment: Alpha-galactosidase uptake by L6 myotubes in vitro; type: cell-based, rat; settings: 5 mM M6P; to the endogenous level
Method: Muscles are the major target tissues for enzyme replacement therapy of Pompe disease due to the lack of acid alpha-glucosidase. To determine if the M6P/IGF-II receptor-mediated lysosomal enzyme uptake pathway can be augmented by insulin/glucose, the effects of insulin/glucose were analyzed on induced muscle cells (myotubes) in vitro. L6 myoblasts (or induced myotubes) and Hep3B cells were cultured in 6-well dishes. Rat L6 myoblasts (ATCC# CRL-1458) were cultured at 37° C. under 5% CO2 in VitaCell DMEM media (ATCC# 30-2002) with 4 mM L-glutamine, 10% fetal bovine serum (Gibco #16000-044) and 1× penicillin/streptomycin. Once confluent, cells were switched to VitaCell DMEM plus 2% horse sera (Gibco# 26050-088) and 1× penicillin/streptomycin. Media were changed every 3 days and at day 9-10, myotubes could be observed as multinuclear tubes. About 30-40% of the myoblasts formed myotubes. Cells were used for uptake assay at day 10. Hep3B cells were grown in MEM-eagle (Gibco# 11960-044) with 10% FBS, 1×NEAA, 1× sodium pyruvate and 1× penicillin/streptomycin.
Before the uptake assay, the cells were washed once with PBS and once with DMEM minus glucose media (Gibco#11966-025), then the cells were starved in 1.5 ml of DMEM minus glucose media for 1 hour at 37° C. […]

[2] = test system: rat alveolar macrophage cell line NR 8383; experiment: CEREZYME enzyme uptake by rat alveolar macrophage cells in vitro; type: cell-based
Method: (§1) The rat alveolar macrophage cell line NR 8383 (ATCC# CRL-2192) were cultured in Kaighn's modified F12K nutrient mixture (Gibco# 21127-002) with 2 mM L-glutamine (Gibco# 25030-081), 15% heat-inactivated fetal bovine serum (FBS) (Gibco# 16000-044) and 1× penicillin/streptomycin. Most of the cells were attached to the dish, with some in suspension. Hep3B cells were grown in MEM-eagle (Gibco# 11960-044) with Earles salts and 10% FBS, 1× non-essential amino acid (NEAA), 1× sodium pyruvate and 1× penicillin/streptomycin. Human liver sinusoidal endothelial cells (LSECS) (ACBRI#-566) were purchased from Applied Cell Biology Research Institute through Cell Systems, Inc. Cells were cultured in CS-C Media (CSC# 4Z0-500) with additional 10% FBS. During passage, the culture dishes or flasks were treated with attachment factor solution (CSC# 4Z0-210). Prior to seeding, the purity of the LSECs was confirmed by immunostaining with anti-VOA Willebrand factor (data not shown).
For dexamethasone or other drug treatment, the cells were incubated with the drugs under various conditions as indicated in each figure legend (FIGS. 1A-F). […]
(§2) The lysates were used for glucocerebrosidase assay in duplicate or triplicate with 4-MU-beta-glucoside (Sigma# M-3633) as substrate and with CEREZYME® enzyme as standard. Proteins were quantified using a MicroBCA protein assay kit (Pierce) with BSA as standard. […]

[3] = test system: spleen macrophages; experiment: CEREZYME enzyme uptake in vivo by isolated rat spleen macrophages; parameters: species or system Fisher rats
Method: Quantitative analysis of the dexamethasone effects on CEREZYME® enzyme uptake in vivo was performed on macrophage cells isolated from spleens through the attachment method (Gessani S, 2000 #35). Fisher rats (female, 180-200 g) were used and divided into four groups. After dexamethasone (50 μg/rat) pretreatment and CEREZYME® enzyme (or unmodified glucocerebrosidase) injection, rat spleens were excised and cut into small pieces. The total spleen cells were released by pressing between two frosted cover slides, followed by washing with 15 ml of RPMI media containing 10% heat-inactivated FBS. Red blood cells were lysed with red blood cell lysis buffer (Sigma). The rest of the splenocytes were seeded in 150-mm tissue culture dishes and incubated at 37° C. for 1 hour for the attachment isolation of macrophages. 15 ml of media were added to five 150-mm tissue culture dishes as blanks for nonspecific protein binding. After removing the cells in suspension and washing the attached cells 5 times with PBS, the attached cells were lysed in KP buffer by scrapping and assayed for glucocerebrosidase activity and protein content. The average of protein content of the blank dishes was subtracted from each cell sample. For dose response of CEREZYME® enzyme to dexamethasone, rats pretreated with dexamethasone were injected with different doses of CEREZYME® enzyme as for the control groups without dexamethasone pretreatment. Attached cells (>90% spleen macrophages) were isolated for glucocerebrosidase assay as described above. […] The absolute enzyme activity, however, was ˜220% of the control without dexamethasone treatment (FIG. 4A). The dexamethasone effects were also tested at other CEREZYME® enzyme doses at 7 U/kg and 72 U/kg respectively, which are either below or above the saturation levels (Mistry, 1996 #10). As is shown in FIG. 4B, at both doses, the dexamethasone effects were about the same and increased CEREZYME® enzyme uptake to a similar level as with 18 U/kg of CEREZYME® enzyme, namely, about 3-fold increase after dosage correction. The absolute CEREZYME® enzyme activity was ˜250% of the control sample at 72 U/kg.

[4] = test system: Hep3B cells; experiment: CEREZYME enzyme uptake by hepatocytes (Hep3B) in vitro; type: cell-based; settings: dexamethasone treatment; result in words
Method: as §1, with “shown). […]” for “shown).”
as §2

[5] = test system: spleen and bone marrow tissues; experiment: Glucocerebrosidase activity in rat spleen and bone marrow after CEREZYME enzyme injection; type: in vivo, Fisher rats; settings: rats, 100 μg dexamethasone, 2.5 U CEREZYME; equals level of non-treated rats given 10 U
Method: To assess the effect of dexamethasone treatment on CEREZYME® enzyme uptake by liver macrophage (Kupffer cells) in vivo, Fisher rats (female, ˜130 g) were divided into four groups (n=3). The first and second groups of rats only received vehicle PBS without dexamethasone, and the third and fourth groups were treated with water-soluble dexamethasone sodium phosphate (American Reagent Laboratories Inc.) at 10 μg and 100 μg (diluted into 200 μl PBS) per rat through intraperitoneal injection. Four doses of dexamethasone were given over two consecutive days, one dose in early morning and one dose in late afternoon on each day. On the third day, CEREZYME® enzyme at 2.5 U per rat (˜18 U/kg) diluted in PBS was administrated into the second, third and fourth groups of rats through tail vein bolus injection. The first group was used as negative control.
Direct measurement of glucocerebrosidase activity in spleen, liver and bone marrow tissues after CEREZYME® enzyme uptake was also assessed in another set of experiments. Five groups of rats were used (n=3). The first four groups were treated in the same manner as described above, whereas the fifth group of rats was not treated with dexamethasone but received 10 U of CEREZYME® enzyme per rat and used as positive controls. […] The supernatants were saved and measured for glucocerebrosidase activity and normalized to protein content as described above.

[6] = test system: asialoglycoprotein receptors (ASGPR); settings: cited from earlier work
[7] = test system: muscle tissues; parameters: species or system normal mice (129 SV); settings: mouse, in vivo, 6 mg/kg
Method: (§3) To directly evaluate the effects of insulin/glucose on alpha-galactosidase uptake in vivo, normal (129 SV, 3-4 month, male) and Fabry mice (on 129SV background, 3-4 month, male) were used for uptake assays under different conditions.
(§4) Normal mice were fasted overnight from 5 p.m. to 9 a.m. next morning, and then divided into three groups. […] The second group directly received alpha-galactosidase injection (6 mg/kg) through tail vein as bolus injection; the third group was first gavaged with 0.5 ml of 50% glucose followed by subcutaneous injection of insulin (0.25 U) on the upper back 10 minutes later, after another 45 minutes, alpha-galactosidase was injected as for the second group. Two hours after alpha-galactosidase injection, different tissues (heart, diaphragm, tongue, muscle gastrocnemius, muscle vastus laterus, muscle paraspinal) were collected and assayed for alpha-galactosidase activity after homogenization in alpha-galactosidase assay buffer plus 1% of triton and 1× protease inhibitor cocktail.

[8] = test system: muscle tissues; settings: mouse, in vivo
Method: as §3, §4
Here, 4 groups of Fabry mice were used and similarly treated as for the normal mice. […]

[9] = test system: mannose receptor; settings: cited from earlier work

## O=P(O)(O)OC[C@H]1OC(O)[C@@H](O)[C@@H](O)[C@@H]1O (stereo partly drawn) [M6P]
[1]
  inhibition of alpha-galactosidase uptake by myotubes: entire alpha-galactosidase uptake can be inhibited

## C[C@@H]1C[C@H]2[C@@H]3CCC4=CC(=O)C=C[C@]4(C)[C@@]3(F)[C@@H](O)C[C@]2(C)[C@@]1(O)C(=O)CO [dexamethasone]
[2]; after two days, separate experiment
  increase of CEREZYME enzyme uptake by rat alveolar macrophage cells: 250-350%
[3]; CEREZYME 7 U/kg and 72 U/kg
  increase in CEREZYME enzyme uptake by spleen macrophages after dosage correction: about 3 fold
[3]; CEREZYME 18 U/kg
  absolute enzyme activity in spleen macrophages, % of control without dexamethasone: ~220%
[3]; CEREZYME 72 U/kg
  absolute CEREZYME enzyme activity in spleen macrophages, % of control sample: ~250%
[3]; dexamethasone 50 μg/rat, CEREZYME 18 U/kg
  increase in CEREZYME enzyme uptake by spleen macrophages after normalizing the dose contribution: at least 3 fold
[4]
  effect on CEREZYME enzyme uptake by hepatocytes: did not significantly enhance
[5]
  increase of total glucocerebrosidase activity in spleen: 4 fold

## Interferon alpha
[6]; after 3-6 hour treatment
  inhibition of binding and uptake of asialoglycoproteins: 50%
[6]; after 24 hour treatment
  inhibition of binding and uptake of asialoglycoproteins: ~100%

## alpha-galactosidase: recombinant human alpha-galactosidase, used as a model M6P-bearing lysosomal enzyme
[7]
  alpha-galactosidase activity in muscle tissues after injection alone: increased its activity in all the muscle tissues
[8]
  alpha-galactosidase activity in tissues relative to wildtype tissues: about similar levels
  increase in alpha-galactosidase activity in heart over wildtype tissue: more than 10 fold

## prostaglandin E
[9]
  enhancement of mannose receptor cell surface expression on macrophages: 4-6 fold

B1: mouse interferon-gamma: mouse interferon-γ, species-specific down-regulator of mannose receptor expression on macrophage cells (protein, UniProt P01580 23-155, looked up)
Interferon gamma: HGTVIESLESLNNYFNSSGIDVEEKSLFLDIWRNWQKDGDMKILQSQIISFYLRLFEVLKDNQAISNNISVIESHLITTFFSNSKAKKDAFMSIAKFEVNNPQVQRQAFNELIRVVHQLLPESSLRKRKRSRC
[2]; result in words
  effect on CEREZYME enzyme uptake by macrophage cells: did not enhance or inhibit

B2: interferon-gamma: cytokine that down-regulates mannose receptors and asialoglycoprotein receptors (protein, UniProt P01579 24-161, looked up)
Interferon gamma: QDPYVKEAENLKKYFNAGHSDVADNGTLFLGILKNWKEESDRKIMQSQIVSFYFKLFKNFKDDQSIQKSVETIKEDMNVKFFNSNKKKRDDFEKLTNYSVTDLNVQRKAIHELIQVMAELSPAAKTGKRKRSQMLFRG
[6]; after 3-6 hour treatment
  inhibition of binding and uptake of asialoglycoproteins: 50%
[6]; after 24 hour treatment
  inhibition of binding and uptake of asialoglycoproteins: ~100%

B3: interleukin-4: cytokine shown to enhance mannose receptor cell surface expression on macrophages (protein, UniProt P05112 25-153, looked up)
Interleukin-4: HKCDITLQEIIKTLNSLTEQKTLCTELTVTDIFAASKNTTEKETFCRAATVLRQFYSHHEKDTRCLGATAQQFHRHKQLIRFLKRLDRNLWGLAGLNSCPVKEANQSTLENFLERLKTIMREKYSKCSS
[9]
  enhancement of mannose receptor cell surface expression on macrophages: 10-15 fold
